From patent publication US9896441B2 (Lycera Corporation, priority 2014, dated 2018)

Key:
[1] = biological target: T1, RORγ-LBD (Homo sapiens, UniProt P51449); assay: RORγ-Ligand Binding Domain (LBD) TR-FRET Assay; format: biochemical; details: for TR-FRET Assay Max Response: maximum response;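 as to TR-FRET Assay Max Response: 665/615 nm signal ratio set to 100 without ursolic acid or test compound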
T1 construct: made in house; host or cells: SF9 cells (baculovirus); used as diluted lysate
T1 sequence (P51449 269-508 limits assumed): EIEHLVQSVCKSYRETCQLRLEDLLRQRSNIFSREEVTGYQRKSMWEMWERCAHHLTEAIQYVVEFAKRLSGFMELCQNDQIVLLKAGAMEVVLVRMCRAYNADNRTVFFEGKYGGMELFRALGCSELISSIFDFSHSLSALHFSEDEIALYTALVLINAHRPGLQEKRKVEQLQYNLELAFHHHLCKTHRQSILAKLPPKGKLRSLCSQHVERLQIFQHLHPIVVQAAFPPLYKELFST
In short: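 This TR-FRET coactivator assay pairs baculovirus-expressed His-RORγ-LBD (~3 nM final) with biotin-SRC1 LXXLL peptide at 200 nM final in pH 7.0 Tris/KCl/EDTA/DTT/BSA buffer.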

[2] = biological target: T2, Gal4-RORγ-LBD (Homo sapiens, UniProt P51449); assay: Gal4-RORγ Luciferase Reporter Assay in HEK-293T Cells; format: cell-based; details: HEK-293 cells, luciferase reporter; for Gal4-RORγ Assay Max Response: maximum response
T2 construct: expressed in transfected cells
T2 sequence (P51449 269-508 limits assumed): T1 sequence (P51449 269-508 limits assumed)
In short: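 HEK-293 cells were co-transfected with Gal4-RORγ-LBD and a Gal4-luciferase reporter, then exposed overnight at 37 °C to compounds with […] ursolic acid present (0.2% DMSO). Luminescence was read with One-Glo after 10 min at RT, untreated signal was set as 100, and Max Response was taken as the upper plateau of a 4-parameter logistic fit.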

| Compound | EC50 ([1]; RORγ-LBD TR-FRET) [nM] | EC50 ([2]; with ursolic acid) [nM] | EC50 ([1]; RORγ-LBD TR-FRET assay) [nM] | EC50 ([2]; in presence of ursolic acid) [nM] | TR-FRET Assay Max Response ([1]; RORγ-LBD TR-FRET assay) | Gal4-RORγ Assay Max Response ([2]; in presence of ursolic acid) |
| --- | --- | --- | --- | --- | --- | --- |
| Cc1cnc(/C=C/c2ccc3c(c2)N(S(=O)(=O)c2cccc(C(F)(F)F)c2)C[C@H](CCC(=O)O)O3)c(F)c1 [Example 89CF, (S,E)-3-(6-(2-(3-fluoro-5-methylpyridin-2-yl)vinyl)-4-((3-(trifluoromethyl)phenyl)sulfonyl)-3,4-dihydro-2H-benzo[b][1,4]-oxazin-2-yl)propanoic acid] | 500 to 5000 | > 10000 | – | – | – | – |
| CCn1cc(S(=O)(=O)N2C[C@H](CCC(C)(C)O)Oc3ccc(/C=C(\C)c4c(F)cccc4Cl)cc32)c(OCCO)n1 [Example 121C, (S,E)-4-(6-(2-(2-chloro-6-fluorophenyl)prop-1-en-1-yl)-4-((1-ethyl-3-(2-hydroxyethoxy)-1H-pyrazol-4-yl)sulfonyl)-3,4-dihydro-2H-benzo[b][1,4]oxazin-2-yl)-2-methylbutan-2-ol] | – | – | < 500 | < 500 | **** (a value greater than 200) | ** (a value in the range of greater than 90 to 150) |
| C/C(=C\c1ccc2c(c1)N(S(=O)(=O)c1cccc(C(F)(F)F)c1)C[C@H](CCC(=O)N1CCC(C)(C(=O)O)CC1)O2)c1c(F)cccc1Cl [Example 129N, (S,E)-1-(3-(6-(2-(2-chloro-6-fluorophenyl)-prop-1-en-1-yl)-4-((3-(trifluoromethyl)phenyl)sulfonyl)-3,4-dihydro-2H-benzo[b][1,4]oxazin-2-yl)propanoyl)-4-methylpiperidine-4-carboxylic acid] | – | – | < 500 | < 500 | *** (a value in the range of greater than 150 to 200) | ** (a value in the range of greater than 90 to 150) |
| CCOc1ncc(Cl)cc1S(=O)(=O)N1C[C@H](CCC(=O)OC)Oc2ccc(/C=C/c3c(Cl)cccc3C(F)(F)F)cc21 [Example 89CY, methyl (S,E)-3-(4-((5-chloro-2-ethoxypyridin-3-yl)sulfonyl)-6-(2-chloro-6-(trifluoromethyl)-styryl)-3,4-dihydro-2H-benzo-[b][1,4]oxazin-2-yl)propanoate] | < 500 | 500 to 5000 | – | – | – | – |
| COC(=O)C(C)(C)C[C@@H]1Cc2ccc(OCc3c(F)cccc3Cl)cc2N(S(=O)(=O)c2ccc(F)c(OC)c2)C1 [Example 26, (S)-Methyl 3-(7-((2-chloro-6-fluorobenzyl)oxy)-1-((4-fluoro-3-methoxyphenyl)sulfonyl)-1,2,3,4-tetrahydroquinolin-3-yl)-2,2-dimethylpropanoate] | < 500 | < 500 | – | – | – | – |
| C/C(=C\c1ccc2c(c1)N(S(=O)(=O)c1cccc(C(F)(F)F)c1)[C@H](C)[C@H](NS(C)(=O)=O)C2)c1c(F)cccc1Cl [Example 116J, N-((2R,3R)-7-((E)-2-(2-chloro-6-fluorophenyl)prop-1-en-1-yl)-2-methyl-1-((3-(trifluoromethyl)phenyl)sulfonyl)-1,2,3,4-tetra-hydroquinolin-3-yl)methanesulfonamide] | – | – | < 500 | 500 to 5000 | *** (a value in the range of greater than 150 to 200) | *** (a value in the range of greater than 150 to 200) |
| O=C(O)CC[C@H]1CN(S(=O)(=O)c2cccc(C(F)(F)F)c2)c2cc(/C=C/c3cc(F)ccc3C(F)(F)F)ccc2O1 [Example 89CP, (S,E)-3-(6-(5-fluoro-2-(trifluoromethyl)styryl)-4-((3-(trifluoromethyl)phenyl)sulfonyl)-3,4-dihydro-2H-benzo[b][1,4]-oxazin-2-yl)propanoic acid] | < 500 | < 500 | – | – | – | – |
| CCn1cc(S(=O)(=O)N2C[C@H]([C@@H](C)N)Oc3ccc(/C=C(\C)c4c(F)cccc4Cl)cc32)c(Cl)n1 [Example 101, (R)-1-((R)-4-((3-Chloro-1-ethyl-1H-pyrazol-4-yl)sulfonyl)-6-((E)-2-(2-chloro-6-fluorophenyl)prop-1-en-1-yl)-3,4-dihydro-2H-benzo[b][1,4]oxazin-2-yl)ethan-1-amine] | < 500 | > 10000 | – | – | – | – |
| O=C(O)CC[C@H]1CN(S(=O)(=O)c2ccc(F)c(OC(F)F)c2)c2cc(/C=C/c3c(F)cccc3Cl)ccc2O1 [Example 89CV, (S,E)-3-(6-(2-chloro-6-fluorostyryl)-4-((3-(difluoromethoxy)-4-fluorophenyl)-sulfonyl)-3,4-dihydro-2H-benzo[b][1,4]oxazin-2-yl)propanoic acid] | < 500 | < 500 | – | – | – | – |
| COC(=O)CC[C@H]1CN(S(=O)(=O)c2cccc(OC(F)F)c2)c2cc(/C=C(\C)c3c(F)cccc3Cl)c(Cl)cc2O1 [Example 47, (S,E)-Methyl 3-(6-(2-(2-chloro-6-fluorophenyl)prop-1-en-1-yl)-4-((3-(difluoromethoxy)phenyl)sulfonyl)-7-chloro-3,4-dihydro-2H-benzo[b][1,4]oxazin-2-yl)propanoate] | < 500 | 5000 to 10000 | – | – | – | – |

Continued, in another order:

| EC50 ([1]; RORγ-LBD TR-FRET) [nM] | EC50 ([2]; with ursolic acid) [nM] | EC50 ([1]; RORγ-LBD TR-FRET assay) [nM] | EC50 ([2]; in presence of ursolic acid) [nM] | Compound | TR-FRET Assay Max Response ([1]; RORγ-LBD TR-FRET assay) | Gal4-RORγ Assay Max Response ([2]; in presence of ursolic acid) |
| --- | --- | --- | --- | --- | --- | --- |
| < 500 | < 500 | – | – | COC(=O)CC[C@H]1CN(S(=O)(=O)c2cccc(C(F)(F)F)c2)c2cc(/C=C(\C)c3ccccc3Cl)ccc2O1 [Example 86Z, (S,E)-methyl 3-(6-(2-(2-chlorophenyl)prop-1-en-1-yl)-4-((3-(trifluoromethyl)phenyl)-sulfonyl)-3,4-dihydro-2H-benzo[b][1,4]oxazin-2-yl)propanoate] | – | – |
| < 500 | 500 to 5000 | – | – | C/C(=C\c1cc2c(cc1F)O[C@@H](CCC(=O)O)CN2S(=O)(=O)c1cccc(C(F)(F)F)c1)c1c(F)cccc1Cl [Example 42, (S,E)-3-(6-(2-(2-Chloro-6-fluorophenyl)prop-1-en-1-yl)-7-fluoro-4-((3-(trifluoromethyl)phenyl)sulfonyl)-3,4-dihydro-2H-benzo[b][1,4]oxazin-2-yl)propanoic acid] | – | – |
| < 500 | < 500 | – | – | C/C(=C\c1ccc2c(c1)N(S(=O)(=O)c1cn(C3CC3)nc1OCCO)C[C@H](CCC(=O)O)O2)c1c(F)cccc1Cl [Example 85, (S,E)-3-(6-(2-(2-Chloro-6-fluorophenyl)prop-1-en-1-yl)-4-((1-cyclopropyl-3-(2-hydroxyethoxy)-1H-pyrazol-4-yl)sulfonyl)-3,4-dihydro-2H-benzo[b][1,4]oxazin-2-yl)propanoic acid] | – | – |
| < 500 | 500 to 5000 | – | – | COc1cccc(S(=O)(=O)N2C[C@H](CCC(=O)O)Oc3ccc(/C=C(\C)c4c(F)cccc4Cl)cc32)c1 [Example 86M, (S,E)-3-(6-(2-(2-chloro-6-fluorophenyl)prop-1-en-1-yl)-4-((3-methoxyphenyl)sulfonyl)-3,4-dihydro-2H-benzo[b][1,4]oxazin-2-yl)propanoic acid] | – | – |
| < 500 | 500 to 5000 | – | – | COC(=O)CC[C@H]1CN(S(=O)(=O)c2cccc(OC(F)F)c2)c2cc(/C=C/c3ccccc3C(F)(F)F)ccc2O1 [Example 89AP, (S,E)-methyl 3-(4-((3-(difluoromethoxy)phenyl)sulfonyl)-6-(2-(trifluoromethyl)styryl)-3,4-dihydro-2H-benzo[b][1,4]-oxazin-2-yl)propanoate] | – | – |
| < 500 | 500 to 5000 | – | – | CCc1ccccc1/C=C/c1ccc2c(c1)N(S(=O)(=O)c1cccc(OC(F)F)c1)C[C@H](CCC(=O)OC)O2 [Example 89AX, (S,E)-methyl 3-(4-((3-(difluoromethoxy)phenyl)sulfonyl)-6-(2-ethylstyryl)-3,4-dihydro-2H-benzo[b][1,4]oxazin-2-yl)propanoate] | – | – |
